Assay results taken from publication PMC7713230, “Upconversion NIR-II fluorophores for mitochondria-targeted cancer imaging and photothermal therapy” (Nature Communications, 2020).

Tests used:
143B cells [1] = assay: Detection of ATP level; assay type: cell-based, human; conditions: CCCP 40 μM 6 h, positive control, control = 100%
Protocol: (§1) 20 mm confocal dishes, and cultured for 12 h at a density of 1×10^5 cells/well. Then, 200 µL of H4-PEG-PT (64 µM) was introduced into the confocal dishes. After 7 h incubation, 143B and HepG2 cells were washed twice with PBS, stained with Hoechst staining kit in PBS for 20 min. The tumor cell samples were immediately examined by an inverted Zeiss Axiovert 200 fluorescence microscopy at a 20× objective, using a high-pressure mercury lamp as an excitation source.
(§2) 143B cells (6×103) were incubated in 96 wells plate at 37 °C for 12 h. Then, cells were treated with 64 μM H4-PEG-PT or 40 μM CCCP for 6 h and irradiated by an 808 nm laser for 3 min each well. After irradiation, ATP level was immediately determined by an ATP determination kit (cat. no. A22066) from Thermo Fisher Scientific with 1% Triton X 100 water solution for cell permeabilization. After 10 min incubation, the luminescence intensity was then detected using a microplate reader (TECAN, Infinite M200 […]
(§3) Detection of mitochondrial membrane potential by JC-1 assay
(§4) 143B cells (6×103) were incubated in 96 wells plate for 12 h. Then, cells were treated with H4-PEG-PT (64 μM), or CCCP (40 μM) for 6 h and irradiated by an 808 nm laser for 3 min. […] Fluorescence intensity was then detected using a microplate reader (TECAN, Infinite M200 Pro) with excitation at 485 nm (green) or 535 nm (red) and emissions at 535 nm (green) or 595 nm (red). […]

143B cells [2] = assay: Mitochondrial membrane potential by JC-1 assay; assay type: cell-based, human; conditions: CCCP 40 μM 6 h, positive control, control = 100%
Protocol: as §1, §2, §3, §4

[3] = test system: mitochondria of 143B cells; assay: Mitochondrial colocalization by confocal laser scanning microscopy; assay type: cell-based, human; conditions: concentrations lower than 10 nM, same experimental conditions
Protocol: […] Scale bar: 10 μm. Results in (a–f) are representative of three independent experiments.
143B (50,000 cells) were seeded in round discs and incubated in 1 mL of DMEM medium (pH = 7.4) containing 10% FBS for 24 h. After replacing the medium with 1 mL of fresh medium, 3k-PEG, H4-PEG, and H4-PEG-PT were added, respectively, and the cells were allowed to incubate for 6 h. After removing the medium and subsequently washing with PBS buffer (pH = 7.4) thrice, mitotracker green was added to stain the mitochondria for 30 min. The cells were viewed under a FV1200 CLSM (Olympus) and Leica SPE.

[4] = test system: osteosarcoma cell lines (e.g., 143B cells); conditions: cited from earlier work
Excerpt: Osteosarcoma is the third most common malignant tumor and accounts for more than 60% of all malignant bone tumors in children and adolescents. Surgical excision of all primary and metastatic tumors remains the essential strategy behind osteosarcoma treatment. However, current diagnostic tools allow detection of only 8–15% of bone or lung metastatic patients[52],[53]. Thus, it is urgent to develop new theranostic strategies for early diagnosis, therapy, and monitoring responses to osteosarcoma therapies[54],[55]. The oligopeptide PPSHTPT (PT) was first designed to mimic the properties of th ...

Compound: N#CC(C#N)=NNc1cccc(Cl)c1 [CCCP, carbonyl cyanide m-chlorophenylhydrazone]
- cellular ATP level (143B cells [1]): ~ 78%
- ratio of J-aggregates to monomers (143B cells [2]): 63%

Compound: CN1/C(=C/C=C/c2n(Cc3ccc(CCl)cc3)c3cc(Cl)c(Cl)cc3[n+]2Cc2ccc(CCl)cc2)Oc2ccccc21 [Mitotracker Green]
- fluorescent intensity in mitochondrial imaging [3]: too weak to be detected

Compound: PPSHTPT [osteosarcoma-targeting oligopeptide PPSHTPT, mimics osteocalcin]
- affinity and specificity for osteosarcoma cell lines [4]: high affinity and specificity
